Reference: patent publication US9822086B2, “Process for the preparation of vortioxetine salts” (Egis Gyogyszergyar Zrt., priority 2014, dated 2017)

Test: Particle size distribution (Malvern Mastersizer 3000) of starting and vortex-mill ground salts
Format: physicochemical
Method: The vortioxetine salts according to the present invention can be ground preferably in a vortex mill, if necessary. Such active ingredients ground in a vortex mill are used in the pharmaceutical compositions according to examples 20-23.
The distribution of the particle size is measured on a Malvern Mastersizer 3000 apparatus under the following conditions: […]

[1] = dispersing pressure 2.0 bar, hemicitrate salt
[2] = dispersing pressure 2.0 bar, monooxalate salt

## 1-[2-(2,4-dimethyl-phenylsulfanyl)-phenyl]-piperazine L-(+)-mandelic acid salt [Vortioxetine-L-mandalate ground]
Dispersing pressure 2.0 bar
  Characteristic particle size d10: 0.5 (±0.6%) μm
  Characteristic particle size d50: 2.1 (±0.2%) μm
  Characteristic particle size d90: 5.0 (±0.9%) μm

## 1-[2-(2,4-dimethyl-phenylsulfanyl)-phenyl]-piperazine L-(+)-mandelic acid salt [Vortioxetine-L-mandalate]
Dispersing pressure 2.0 bar
  Characteristic particle size d10: 8.6 (±0.2%) μm
  Characteristic particle size d50: 41.5 (±0.2%) μm
  Characteristic particle size d90: 114 (±0.9%) μm

## 1-[2-(2,4-dimethyl-phenylsulfanyl)-phenyl]-piperazine hemicitrate salt [Vortioxetine-hemicitrate ground]
[1]
  Characteristic particle size d10: 0.6 (±0.7%) μm
  Characteristic particle size d50: 2.9 (±0.2%) μm
  Characteristic particle size d90: 9.1 (±1.1%) μm

## 1-[2-(2,4-dimethyl-phenylsulfanyl)-phenyl]-piperazine hemicitrate salt [Vortioxetine-hemicitrate]
[1]
  Characteristic particle size d10: 5.3 (±0.4%) μm
  Characteristic particle size d50: 25.9 (±0.7%) μm
  Characteristic particle size d90: 83.6 (±0.4%) μm

## Br.Cc1ccc(Sc2ccccc2N2CCNCC2)c(C)c1 [Vortioxetine-hydrobromide ground, 1-[2-(2,4-dimethyl-phenylsulfanyl)-phenyl]-piperazine hydrobromide salt, reference compound]
Dispersing pressure 2.0 bar
  Characteristic particle size d10: 0.4 (±0.5%) μm
  Characteristic particle size d50: 2.1 (±0.7%) μm
  Characteristic particle size d90: 6.2 (±1.0%) μm

## Br.Cc1ccc(Sc2ccccc2N2CCNCC2)c(C)c1 [Vortioxetine-hydrobromide, 1-[2-(2,4-dimethyl-phenylsulfanyl)-phenyl]-piperazine hydrobromide salt, reference compound]
Dispersing pressure 4.0 bar
  Characteristic particle size d10: 1.4 (±2.2%) μm
  Characteristic particle size d50: 10.8 (±1.6%) μm
  Characteristic particle size d90: 98.6 (±4.3%) μm

## Cc1ccc(Sc2ccccc2N2CCNCC2)c(C)c1.O=C(O)C(=O)O [Vortioxetine-monooxalate ground, 1-[2-(2,4-dimethyl-phenylsulfanyl)-phenyl]-piperazine monooxalate salt]
[2]
  Characteristic particle size d10: 0.7 (±0.5%) μm
  Characteristic particle size d50: 2.2 (±0.7%) μm
  Characteristic particle size d90: 5.9 (±0.9%) μm

## Cc1ccc(Sc2ccccc2N2CCNCC2)c(C)c1.O=C(O)C(=O)O [Vortioxetine-monooxalate, 1-[2-(2,4-dimethyl-phenylsulfanyl)-phenyl]-piperazine monooxalate salt]
[2]
  Characteristic particle size d10: 2.0 (±0.3%) μm
  Characteristic particle size d50: 6.8 (±0.5%) μm
  Characteristic particle size d90: 21.14 (±0.7%) μm
